# According to the supplement of paper PMC10307832:
# Key:
# Experiment in all cases: relative viability (nuclei count vs DMSO), 5 days (fraction); higher = more cells survive
# A-427 = test system: A-427
# Procedure, shortened: (§1)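 One day after seeding in 1536-well plates, lung cancer cell lines were dosed by pin tool. Dosing was either single-drug or a fixed anchor-drug dose plus five library-drug doses (not always all listed) in √10 steps. After 5 days, nuclei were stained in one fix-and-stain step and counted on 4× images, and relative viability is the nuclei count of treated wells over that of vehicle wells, given as the median of duplicate plates.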
# ChaGo-K-1 = test system: ChaGo-K-1
# Procedure, shortened: as §1
# EKVX = test system: EKVX
# Procedure, shortened: as §1
# H3255 = test system: H3255
# Procedure, shortened: as §1
# LK-2 = test system: LK-2
# Procedure, shortened: as §1
# NCI-H1355 = test system: NCI-H1355
# Procedure, shortened: as §1
# NCI-H1650 = test system: NCI-H1650
# Procedure, shortened: as §1
# NCI-H1666 = test system: NCI-H1666
# Procedure, shortened: as §1
# NCI-H1755 = test system: NCI-H1755
# Procedure, shortened: as §1
# NCI-H1944 = test system: NCI-H1944
# Procedure, shortened: as §1
# NCI-H2085 = test system: NCI-H2085
# Procedure, shortened: as §1
# NCI-H2228 = test system: NCI-H2228
# Procedure, shortened: as §1
# NCI-H2347 = test system: NCI-H2347
# Procedure, shortened: as §1
# NCI-H3122 = test system: NCI-H3122
# Procedure, shortened: as §1
# NCI-H322M = test system: NCI-H322M
# Procedure, shortened: as §1
# NCI-H358 = test system: NCI-H358
# Procedure, shortened: as §1
# NCI-H441 = test system: NCI-H441
# Procedure, shortened: as §1
# NCI-H460 = test system: NCI-H460
# Procedure, shortened: as §1
# NCI-H520 = test system: NCI-H520
# Procedure, shortened: as §1
# NCI-H596 = test system: NCI-H596
# Procedure, shortened: as §1
# NCI-H650 = test system: NCI-H650
# Procedure, shortened: as §1
# NCI-H838 = test system: NCI-H838
# Procedure, shortened: as §1
# SW 1573 = test system: SW 1573
# Procedure, shortened: as §1
compound,measurement,setting,value
O=c1[nH]c2ccccc2n1C1CCN(CCCC(c2ccc(F)cc2)c2ccc(F)cc2)CC1 [Pimozide] + O=C(c1cc(Cc2n[nH]c(=O)c3ccccc23)ccc1F)N1CCN(C(=O)C2CC2)CC1 [Olaparib] (partner 8 µM),relative viability,A-427; first compound 0.08 µM,0.708
same,relative viability,A-427; first compound 0.253 µM,0.681
same,relative viability,A-427; first compound 0.8 µM,0.661
same,relative viability,A-427; first compound 2.53 µM,0.691
same,relative viability,A-427; first compound 8 µM,0.685
same,relative viability,ChaGo-K-1; first compound 0.08 µM,0.402
same,relative viability,ChaGo-K-1; first compound 0.253 µM,0.365
same,relative viability,ChaGo-K-1; first compound 0.8 µM,0.433
same,relative viability,ChaGo-K-1; first compound 2.53 µM,0.467
same,relative viability,ChaGo-K-1; first compound 8 µM,0.413
same,relative viability,EKVX; first compound 0.253 µM,0.783
same,relative viability,EKVX; first compound 0.8 µM,0.823
same,relative viability,EKVX; first compound 2.53 µM,0.854
same,relative viability,EKVX; first compound 8 µM,0.795
same,relative viability,H3255; first compound 0.253 µM,0.511
same,relative viability,H3255; first compound 0.8 µM,0.504
same,relative viability,H3255; first compound 2.53 µM,0.523
same,relative viability,H3255; first compound 8 µM,0.59
same,relative viability,LK-2; first compound 0.08 µM,0.643
same,relative viability,LK-2; first compound 0.253 µM,0.687
same,relative viability,LK-2; first compound 0.8 µM,0.765
same,relative viability,LK-2; first compound 2.53 µM,0.693
same,relative viability,LK-2; first compound 8 µM,0.691
same,relative viability,NCI-H1355; first compound 0.08 µM,0.717
same,relative viability,NCI-H1355; first compound 0.253 µM,0.677
same,relative viability,NCI-H1355; first compound 0.8 µM,0.675
same,relative viability,NCI-H1355; first compound 2.53 µM,0.758
same,relative viability,NCI-H1355; first compound 8 µM,0.689
same,relative viability,NCI-H1650; first compound 0.08 µM,0.775
same,relative viability,NCI-H1650; first compound 0.253 µM,0.664
same,relative viability,NCI-H1650; first compound 0.8 µM,0.762
same,relative viability,NCI-H1650; first compound 2.53 µM,0.962
same,relative viability,NCI-H1650; first compound 8 µM,0.805
same,relative viability,NCI-H1666; first compound 0.08 µM,0.708
same,relative viability,NCI-H1666; first compound 0.253 µM,0.737
same,relative viability,NCI-H1666; first compound 0.8 µM,0.787
same,relative viability,NCI-H1666; first compound 2.53 µM,0.756
same,relative viability,NCI-H1666; first compound 8 µM,0.754
same,relative viability,NCI-H1755; first compound 0.08 µM,0.879
same,relative viability,NCI-H1755; first compound 0.253 µM,0.842
same,relative viability,NCI-H1755; first compound 0.8 µM,0.845
same,relative viability,NCI-H1755; first compound 2.53 µM,0.825
same,relative viability,NCI-H1755; first compound 8 µM,0.776
same,relative viability,NCI-H1944; first compound 0.08 µM,0.427
same,relative viability,NCI-H1944; first compound 2.53 µM,0.35
same,relative viability,NCI-H1944; first compound 8 µM,0.413
same,relative viability,NCI-H2085; first compound 0.08 µM,0.691
same,relative viability,NCI-H2085; first compound 0.253 µM,0.82
same,relative viability,NCI-H2085; first compound 0.8 µM,0.767
same,relative viability,NCI-H2085; first compound 2.53 µM,0.783
same,relative viability,NCI-H2085; first compound 8 µM,0.796
same,relative viability,NCI-H2228; first compound 0.08 µM,0.759
same,relative viability,NCI-H2228; first compound 0.253 µM,0.699
same,relative viability,NCI-H2228; first compound 0.8 µM,0.555
same,relative viability,NCI-H2228; first compound 2.53 µM,0.45
same,relative viability,NCI-H2228; first compound 8 µM,0.344
same,relative viability,NCI-H2347; first compound 0.08 µM,0.663
same,relative viability,NCI-H2347; first compound 0.253 µM,0.556
same,relative viability,NCI-H2347; first compound 0.8 µM,0.577
same,relative viability,NCI-H2347; first compound 2.53 µM,0.519
same,relative viability,NCI-H2347; first compound 8 µM,0.587
same,relative viability,NCI-H3122; first compound 0.08 µM,0.529
same,relative viability,NCI-H3122; first compound 0.253 µM,0.684
same,relative viability,NCI-H3122; first compound 0.8 µM,0.66
same,relative viability,NCI-H3122; first compound 2.53 µM,0.637
same,relative viability,NCI-H3122; first compound 8 µM,0.576
same,relative viability,NCI-H322M; first compound 0.08 µM,0.76
same,relative viability,NCI-H322M; first compound 0.253 µM,0.732
same,relative viability,NCI-H322M; first compound 0.8 µM,0.684
same,relative viability,NCI-H322M; first compound 2.53 µM,0.833
same,relative viability,NCI-H322M; first compound 8 µM,0.795
same,relative viability,NCI-H358; first compound 0.08 µM,0.596
same,relative viability,NCI-H358; first compound 0.253 µM,0.583
same,relative viability,NCI-H358; first compound 0.8 µM,0.561
same,relative viability,NCI-H358; first compound 2.53 µM,0.508
same,relative viability,NCI-H358; first compound 8 µM,0.595
same,relative viability,NCI-H441; first compound 0.08 µM,0.641
same,relative viability,NCI-H441; first compound 0.253 µM,0.593
same,relative viability,NCI-H441; first compound 0.8 µM,0.506
same,relative viability,NCI-H441; first compound 2.53 µM,0.416
same,relative viability,NCI-H441; first compound 8 µM,0.57
same,relative viability,NCI-H460; first compound 0.08 µM,0.499
same,relative viability,NCI-H460; first compound 0.253 µM,0.48
same,relative viability,NCI-H460; first compound 0.8 µM,0.394
same,relative viability,NCI-H460; first compound 2.53 µM,0.361
same,relative viability,NCI-H460; first compound 8 µM,0.398
same,relative viability,NCI-H520; first compound 0.08 µM,0.33
same,relative viability,NCI-H520; first compound 0.253 µM,0.345
same,relative viability,NCI-H520; first compound 0.8 µM,0.266
same,relative viability,NCI-H520; first compound 2.53 µM,0.312
same,relative viability,NCI-H520; first compound 8 µM,0.276
same,relative viability,NCI-H596; first compound 0.08 µM,0.768
same,relative viability,NCI-H596; first compound 0.253 µM,0.755
same,relative viability,NCI-H596; first compound 0.8 µM,0.663
same,relative viability,NCI-H596; first compound 2.53 µM,0.745
same,relative viability,NCI-H596; first compound 8 µM,0.779
same,relative viability,NCI-H650; first compound 0.08 µM,0.409
same,relative viability,NCI-H650; first compound 0.253 µM,0.333
same,relative viability,NCI-H650; first compound 0.8 µM,0.475
same,relative viability,NCI-H650; first compound 2.53 µM,0.404
same,relative viability,NCI-H650; first compound 8 µM,0.408
same,relative viability,NCI-H838; first compound 0.08 µM,0.772
same,relative viability,NCI-H838; first compound 0.253 µM,0.757
same,relative viability,NCI-H838; first compound 0.8 µM,0.729
same,relative viability,NCI-H838; first compound 2.53 µM,0.719
same,relative viability,NCI-H838; first compound 8 µM,0.744
same,relative viability,SW 1573; first compound 0.08 µM,0.457
same,relative viability,SW 1573; first compound 0.253 µM,0.442
same,relative viability,SW 1573; first compound 0.8 µM,0.448
same,relative viability,SW 1573; first compound 2.53 µM,0.38
same,relative viability,SW 1573; first compound 8 µM,0.391
